{
  "source": "patent US8263401B2",
  "about": "“Adenylyl cyclase antibodies, compositions and uses thereof” (University of Medicine and Dentistry of New Jersey, priority 2005, dated 2012)",
  "key": {"AC5KO and WT mice": {"system": "AC5KO and WT mice", "test": "Echocardiography in anesthetized mice during i.v. ISO infusion, with co-administered Ach", "assay_type": "in vivo, mouse", "procedure": "Adenylyl cyclase 5 knockout (AC5KO) mice (6.4±0.2 month old, n=6) and wild type (WT) mice (6.7±0.1 month old, n=6) of either sex from the same genetic background as the transgenic mice were used for the physiological studies. Measurements of LV ejection fraction (LVEF) were performed as described previously (Iwase, M., Uechi, M., Vatner, D. E., Asai, K., Shannon, R. P., Kudej, R. K., Wagner, T. E., Wight, D.C., Patrick, T. A., Ishikawa, Y., et al. (1997), Am. J. Physiol. 272:H585-589.). Briefly, after determination of body weight, mice were anesthetized with ketamine (0.065 mg/g), acepromazine (0.002 mg/g), and xylazine (0.013 mg/g) injected intraperitoneally and were allowed to breathe spontaneously. Echocardiography was performed using ultrasonography (Sequoia C256; Acuson Corporation, Mountain View, Calif., USA). A dynamically focused 15-MHz annular array transducer was applied from below, using a warmed saline bag as a standoff. M-mode echocardiographic measurements of the LV were performed at baseline and during intravenous infusion of ISO (0.005, 0.01, 0.02, and 0.04 μg/kg/min i.v. for 5 minutes each)(Abbott Laboratories Inc, North Chicago, Ill., USA) using an infusion pump (PHD 2000; Harvard Apparatus, Inc., Holliston, Mass., USA). The total amount of the infusion volume was <100 μL in each mouse. […]"}, "[1]": {"system": "ISO-stimulated AC activity in heart membranes", "test": "AC assay in heart membrane preparations", "assay_type": "biochemical, mouse", "conditions": "carbachol 10 μM", "procedure": "Hearts were dissected from the mice and membrane preparations were prepared as described previously (Ishikawa, Y., Sorota, S., Kiuchi, K., Shannon, R. P., Komamura, K., Katsushika, S., Vatner, D. E., Vatner, S. F., and Homcy, C. J. (1994), J. Clin. Invest. 93:2224-2229.). Protein concentration was measured by the method of Bradford using bovine serum albumin as a standard (Bradford, M. M. (1976). Anal. Biochem. 72:248-254.). AC activity was measured as described previously (Kawabe, J., Iwami, G., Ebina, T., Ohno, S., Katada, T., Ueda, Y., Homcy, C. J., and Ishikawa, Y. (1994), J. Biol. Chem. 269:16554-16558). AC activity was linear within the incubation time up to 30 min. In order to harvest hearts for tissue cAMP content measurements, mice were allowed to acclimate to the surroundings in the laboratory for an hour before sacrifice. Freshly isolated hearts were briefly immersed in liquid nitrogen. […] The concentration of cAMP was determined with an RIA kit (PerkinElmer Life Sciences, Boston, Mass., USA).\nInventors then examined cAMP production in membranes from the hearts of AC5KO and WT at 6 months of age (FIG. 5A). The steady state AC activity was determined as the maximal capacity of cAMP production in the presence of ISO (100 μM ISO+100 μM GTP), GTPγS (100 μM) or forskolin (100 μM). […]"}, "[2]": {"system": "conscious AC5KO and WT mice", "test": "HR and arterial pressure in conscious mice (ECG, micromanometer catheter)", "assay_type": "in vivo, mouse", "conditions": "for increase in HR: atropine 1 μg/g i.v.; for decrease in HR: Ach 0.01 μg/g i.v.", "excerpt": "In AC5KO and WT mice, four ECG wires (New England Electric Wire Corporation, Lisbon, N.H., USA) were placed subcutaneously, a silicone elastomer tubing (Cardiovascular Instrument Corp., Wakefield, Mass., USA) was inserted into the right external jugular vein and a 1.4 F micromanometer catheter (Millar Instruments, Inc., Houston, Tex., USA) was inserted into the lower abdominal aorta via the femoral artery as described previously with some modifications (Uechi, M., Asai, K., Osaka, M., Smith, A., Sato, N., Wagner, T. E., Ishikawa, Y., Hayakawa, H., Vatner, D. E., Shannon, R. P., et al. (1998), Circ. Res. 82:416-423). The ECG wires, the silicone elastomer tubing and the micromanometer catheter were tunneled subcutaneously to the back, externalized, and secured in a plastic cap. On the day of the study, each mouse was placed in the mouse holder, the jugular venous catheter was accessed and connected to a microliter syringe (Hamilton Co., Reno, Nev., USA), the 1.4 F micromanometer catheter was connected to a recorder (Dash 4u; Astro-Med, Inc., West Warwick, R.I., USA) and the ECG wires were connected to an ECG amplifier (Gould Inc., Cleveland, Ohio, USA). All experiments were recorded with animals in the conscious state. After at least 6 hours recovery from the implantation of the catheter, when a stable HR was achieved, the baseline ECG and arterial pressure (AP) were recorded for 5 min. Ach(0.05 μg/g) was then administered intravenously (i.v.), and the ECG and AP recording were repeated. A recovery period of 15 min was allowed for the HR and AP to return to baseline before administering the next drug. Baseline HR slowing was examined in response to phenylephrine (0.2 μg/g i.v.)."}, "[3]": {"system": "WT, heterozygous and AC5KO mice", "test": "Rotor rod test before and after db-cAMP injection", "assay_type": "in vivo, mouse", "conditions": "for increase in time spent on the rod without falling: 30 minutes after db-cAMP injection; for rotor rod performance: 48 hours after injection", "procedure": "The animals were tested for motor function 30 minutes after i. p. administration of 10 mg/kg of db-cAMP. The test was repeated after 48 hours of drug administration when the drug effect was completely eliminated. Similarly, intracranial injection of db-cAMP was conducted. Before drug injection, the mice were anesthetized with ketamine. Injections of db-cAMP into the mouse brain were performed at the following coordinates: for injection into the striatum: 1.70 mm anterior to the bregma, 1.1 mm to the right of the midline, and 4.1 mm deep. Three micro-liters of drug solution was loaded into an internal cannula needle (C315×33) with cannula tubing connected to a Hamilton syringe mounted onto a microinjection pump (Harvard Apparatus, Dover, Mass.). The drug solutions were delivered at a rate of 0.5 μl/min. Normal saline was injected in a sham control.\nThe rotor rod test is the most commonly used method to evaluate the motor function in rodents^106 but other methods are also available^107 to reinforce the findings of the rotor rod test. Such tests include rearing test, spontaneous movement study and pole test. The first test examines the frequency of vertical movements of mice and the second examines that of horizontal movements. Thus, spontaneous activity was determined both horizontally (locomotion) and vertically (rearings). The last test, the pole test, examines the degree of bradykinesia. In this test, mice were placed head upward on the top of a rough-surfaced pole. The time until they turned downward (Tturn) and the time until they climbed down to the floor were measured (TLA). Mice were placed in a cage and their movements were videotaped for analysis. Thus, spontaneous movements as an index of motor function were evaluated. Most important, these tests were used to evaluate the recovery of motor function upon cAMP administration and/or adenovirus-mediated gene transfer of AC5 in additional studies. The preliminary data were obtained from littermates of AC5KO, and WT males.\nThe inventors examined whether the locomotor activity of the AC5KO mouse was impaired compared to a normal mouse. At a glance, the AC5KO mice appeared normal, i.e., they were not catatonic or rigid. […] Inventors analyzed them with a rotor rod test in which mice were put on a rotor rod as shown below. In this task, animals had to make continuous adjustment in balance and posture to remain upright on a rod. The time that mice spent on the accelerating rotor-rod without falling was measured. The rod increased from 3 rpm to 30 rpm during each 5-min trial. […] At the 5th trial, there was a small, but significant decrease in their performance in heterozygous mice."}, "[4]": {"system": "primary cultured striatal neurons", "test": "cAMP accumulation in primary cultured striatal neurons", "assay_type": "cell-based, mouse", "conditions": "neuronal cells from WT mice; forskolin 50 micro M, dopamine 100 micro M (FIG. 9)", "procedure": "Reaction with various agonists in the presence of a phosphodiesterase inhibitor proceed for 10 minutes and are stopped by the addition of ice-cold 2.5% perchloric acid, followed by sonication and centrifugation. Pellets are dissolved in 0.1 N NaOH for protein measurements and the supernatants are subject to cAMP assay by radioimmunoassay after neutralization. To examine whether AC5 plays a major role in regulating cAMP production, receptor-stimulated cAMP production and its effect in the striatum was measured. The rationale for this study is as follows. Changes in cAMP signal upon receptor stimulation can be easily determined by measuring AC activity in intact neuronal cells because the striatal membrane preparations present a few problems. Determination of basal, GTPγS— and forskolin-stimulated AC activity may be readily done while receptor-regulated AC activity, both stimulatory and inhibitory, is not easy in the striatum. This is, at least partially, due to less abundant receptor expression and the disruption of the receptor/G protein/AC coupling during the process of membrane homogenization of the striatum. Therefore, the effect of receptor stimulation and its sequential changes in AC activity and further downstream events including the process of phosphorylation/dephosphorylation may be best examined using cultured cells or even the whole body. […]"}},
  "data": [
    {"smiles": "CC(C)NCC(O)c1ccc(O)c(O)c1", "note": "(stereo not shown) [ISO]", "values": [
      {"measurement": "cardiac responses on LVEF and fractional shortening (FS)", "setting": "AC5KO and WT mice", "value": "attenuated"}
    ]},
    {"smiles": "C[N+](C)(C)CCOC(N)=O", "note": "[Carbachol]", "values": [
      {"measurement": "inhibition of ISO-stimulated AC activity", "setting": "[1]; AC5KO heart membranes", "value": "did not inhibit"},
      {"measurement": "decrease of ISO-stimulated AC activity", "setting": "[1]; WT heart membranes", "value": "21±3.4", "unit": "%"}
    ]},
    {"smiles": "CN1[C@@H]2CC[C@H]1C[C@@H](OC(=O)C(CO)c1ccccc1)C2", "note": "(stereo partly shown) [atropine]", "values": [
      {"measurement": "increase in HR", "setting": "[2]; AC5KO", "value": "19±7.5", "unit": "beats/min"},
      {"measurement": "increase in HR", "setting": "[2]; WT", "value": "102±22.2", "unit": "beats/min"}
    ]},
    {"smiles": "CCCC(=O)Nc1ncnc2c1ncn2[C@@H]1O[C@@H]2COP(=O)(O)O[C@H]2[C@H]1OC(=O)CCC", "note": "[db-cAMP]", "values": [
      {"measurement": "increase in time spent on the rod without falling", "setting": "[3]; AC5KO", "value": "approximately two-fold"},
      {"measurement": "rotor rod performance", "setting": "[3]; AC5KO", "value": "dropped to the basal level"},
      {"measurement": "increase in time spent on the rod without falling", "setting": "[3]; WT", "value": 30, "unit": "%"},
      {"measurement": "rotor rod performance", "setting": "[3]; WT", "value": "remained similar"},
      {"measurement": "increase in time spent on the rod without falling", "setting": "[3]; heterozygous", "value": 25, "unit": "%"},
      {"measurement": "rotor rod performance", "setting": "[3]; heterozygous", "value": "remained similar"}
    ]},
    {"smiles": "CNC[C@H](O)c1cccc(O)c1", "note": "[Phenylephrine, phenylephrine]", "values": [
      {"measurement": "baroreflex mediated slowing of HR", "setting": "[2]; AC5KO compared with WT, phenylephrine 0.2 μg/g i.v.", "value": "less"},
      {"measurement": "systolic arterial pressure", "setting": "[2]; both WT and AC5KO, phenylephrine 0.2 μg/g i.v.", "value": "increased systolic arterial pressure significantly"}
    ]},
    {"smiles": "CC(=O)OCC[N+](C)(C)C", "note": "[Ach, acetylcholine]", "values": [
      {"measurement": "decrease in HR", "setting": "[2]; conscious AC5KO", "value": 7.5, "unit": "%"},
      {"measurement": "decrease in HR", "setting": "[2]; conscious WT", "value": 22, "unit": "%"}
    ]},
    {"smiles": "NCCc1ccc(O)c(O)c1", "note": "[dopamine]", "values": [
      {"measurement": "levels of cAMP compared to untreated cells", "setting": "[4]", "value": "effective at increasing the levels of cAMP significantly"}
    ]}
  ]
}
